Data on ten molecules can be found in US8829033B2, “N-benzylamide substituted derivatives of 2-(acylamido)acetic acid and 2-(acylamido)propionic acids: potent neurological agents” (The University of North Carolina at Chapel Hill, priority 2009, dated 2014).

Where two headings read alike, the source gives them in different places. Bounds are passed on as bounds.

Data set [1] relates to Rat. Briefly: Maximal electroshock seizure (MES) test, rat (po). Type of data set: in vivo.
Protocol: (§2) The maximal electroconvulsive shock (MES) test is regarded as a standard screen for anticonvulsant activity in terms of inhibition of seizure spread in generalized tonic-clonic seizures.
(§3) Groups of at least 8 male albino CF No. 1 mice or male albino Sprague-Dawley rats are treated with 10 mL/kg i.p. or 4 mL/kg p.o. of the test compound solution, respectively. The electrical stimulus in the MES test is 50 mA at 60 Hz for mice and 150 mA at 60 Hz for rats, both delivered for 0.2 sec. Abolition of the hind leg tonic extensor component of the seizure is used as the endpoint.
Data set [2] is described as follows: Neurological toxicity, rotorod test, mice (ip). The note with it: male, CF No 1, mouse, in vivo. Format: in vivo. How it is done: (§1) Tests are conducted in groups of at least 8 mice or rats to determine the intrinsic neurotoxicity (neuromuscular impairment) after administration of the test compound by the route of administration to be used in the pharmacology studies. Neurotoxicity is determined in male CF No 1 mice by the rotarod procedure. Inability of the mouse to maintain its equilibrium in 3 trials during 1 min on this rotating rod (6 rpm) is used as an indication of such impairment. In Sprague-Dawley rats, minimal motor impairment (MMI) is determined by overt evidence of ataxia, abnormal gait, and stance.
Background: In the rotarod test animals must keep their balance on a rotating rod.

For data set [3], the system named is Rats. Briefly: Partial sciatic nerve ligation model (rats, ip). The conditions noted are these: dose 12 (mg), at 1 h, p < 0.05. Format: in vivo.
In data set [4] the test system is Rat. The note with it: cited from earlier work.
In data set [5] the test system is Mice. Briefly: Maximal electroshock seizure (MES) test, mice (ip).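 Note: male albino CF No. 1 mice dosed ip, MES stimulus 50 mA at 60 Hz lasting 0.2 s, efficacy endpoint is loss of hind leg tonic extension.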
Protocol: as §2, §3
Data set [6] deals with Mice. The note with it: rotorod, Ref 30, 16, 32; cited from earlier work.
In data set [7] the test system is Mice. Briefly: Formalin test (mice, ip). Type of data set: in vivo. The conditions noted are these: for Formalin Assay Acute (%) / Formalin Assay Inflam. (%): mice, ip; for Formalin Test (mice, ip) Inflammatory (%): duration of licking as percent of control, late phase. How it is done: Compounds of the present invention were active in treating pain in a formalin test carried out in accordance with standard techniques, as described in S. Hunskaar et al., J. Neurosci. Methods 14: 69-76 (1985). Briefly, 0.5% formalin is injected into the mouse hind paw to elicit a bi-phasic licking response, where the first acute phase is thought to correspond to the direct stimulation of peripheral fibers and the second (inflammatory) phase is caused by the release of inflammatory mediators.
Spinal/supraspinal plasticity of nociception is considered as a molecular basis for neuropathic pain particularly during the second (late) phase of the test (Dubuisson & Dennis, 1977; Coderre et al., 1990; Coderre & Melzack, 1992), during which most clinically used drugs against neuropathic pain are active.

Data set [8] concerns Mice. The note with it: cited from earlier work; for Mice (ip) Mes, ED50: Ref 30, 16, 32.
In data set [9] the test system is Rat. The note with it: Ref 16, 32; cited from earlier work.
The nature of data set [10]: Behavioral toxicity, rat (po). Type of data set: in vivo. The note with it: Sprague-Dawley, in vivo, po, read-out: Rat (po) Tox, TD50. Here is the method: as §1
The subject of data set [11] is Mice.
Protocol: as §2, §3
In data set [12] the test system is Mice. The data set is described as follows: Neurological toxicity, rotorod test, mice (ip). Format: in vivo. How it is done: as §1
Data set [13] concerns Mice. Briefly: 6 Hz test, mice (ip). Format: in vivo. The conditions noted are these: for ED50: Mus musculus, ip, intraperitoneally.
Data set [14] deals with Rats. The data set is described as follows: Hippocampal kindling test, rats (ip). Format: in vivo. The conditions noted are these: rats. How it is done:
The kindling model provides a tool to predict a test compound's activity in complex partial seizures.
Male albino Sprague-Dawley rats (n=8) are kindled to a Stage 5 behavioral seizure. They are treated with an appropriate i.p. dose of the test compound after a 1-week, stimulus-free period. The test compound is evaluated for its effect on kindled motor seizures (seizures scores of 4 and 5), limbic behavior seizures (seizure scores between 1 and 3) and after-discharge duration. After 15 min, each rat is stimulated every 30 min for 3-4 h. Following each stimulation, individual seizure scores and after-discharge duration are recorded. The group mean and standard error of the mean (SEM) are calculated for each parameter.

The subject of data set [15] is Rat. Briefly: Behavioral toxicity, rat (po). Type of data set: in vivo. Here is the method:
as §1

[16] abbreviates: Rattus norvegicus, read-out: Rat (po) MES, ED50.
The mark [17] stands for this setting: Table b501, ip, protective index (TD50/ED50).
Where [18] appears, read: Table b501, orally, behavioral toxicity.
[19] abbreviates: rotorod test, read-out: Mice (ip) Tox, Td50.

The term TD50 denotes the 50% point of the dose-response relation for the toxic effect studied. `COC[C@@H](NC(C)=O)C(=O)NCc1ccc(OCc2cccc(F)c2)cc1` [(R)-3, (R)-2-Acetamido-N-(4-(3-fluorobenzyloxy)benzyl)-3-methoxypropanamide]: in data set [1] (PI=TD50/ED50), the “Rat (po) PI” value is >36. Besides, the TD50 in [2] (read-out: Mice (ip) Tox, TD50) was 26 mg/kg. Besides, the “Partial Sciatic Nerve Ligation Assay: attenuation of mechanical allodynia” value in [3] is given as 11.2 fold attentaution of mechanical. The “Rat (po) MES, ED50” value in [4] (Ref 16, 32) was 3.9 [2.0] mg/kg. In [5] (ip), the “Mice (ip) MES, ED50” value was 13 [0.25]. In data set [5] (ip, PI=TD50/ED50), the “Mice (ip) PI” value was ~2. For the same molecule, in data set [6], the “Mice (ip) Tox, TD50” value is 27 [0.25] mg/kg. In addition, in data set [7] (dose 15 (mg)), the “Formalin Assay Acute (%)” value came out at 35% and the “Formalin Assay Inflam. (%)” value is listed as 44%. In data set [8], the “Mice (ip) Mes, ED50” value is 4.5 [0.5] mg/kg. Besides, the “Rat (po) Tox, TD50” value in data set [9] is >500 mg/kg.

The ED50 is the dose at which the effect has come halfway, by size or by number of responders. As to `COC[C@@H](NC(C)=O)C(=O)NCc1ccc(OC(F)(F)F)cc1` [(R)-4], the ED50 in [1] (setting [16]) was > 30 mg/kg. Also, in data set [5] (ip, PI=TD50/ED50), the “Mice (ip) PI” value is given as ~9.3. In addition, in data set [7] (dose 4.0 (mg)), the “Formalin Assay Acute (%)” value stood at 52% and the “Formalin Assay Inflam. (%)” value came to 50%. In data set [10], the TD50 is > 30 mg/kg.

For the molecule `COCCCc1ccc(CNC(=O)[C@@H](COC)NC(C)=O)cc1` [(R)-7], the ED50 in [1] (setting [16]) is 16 mg/kg. In addition, the TD50 in data set [2] (read-out: Mice (ip) Tox, TD50) was 62 mg/kg; in [10] it was > 500 mg/kg.

Consider `COCc1ccc(CNC(=O)[C@@H](COC)NC(C)=O)cc1` [(R)-8], for which, in data set [1] (setting [16]), the ED50 worked out at 45 mg/kg. Moreover, the TD50 in data set [2] (read-out: Mice (ip) Tox, TD50) was 180 mg/kg; in data set [10], > 500 mg/kg.

By melting point is commonly meant the temperature of the solid-liquid transition. Take `COC[C@@H](NC(C)=O)C(=O)NCc1ccc(C2(C(F)(F)F)N=N2)cc1` [(R)-9, (R)-2-Acetamido-3-methoxy-N-(4-(3-(trifluoromethyl)-3H-diazirin-3-yl)benzyl)propanamide]: the melting point is 195 °C (dec.). Further, the ED50 in data set [1] (read-out: Rat (po) MES, ED50) is > 30 mg/kg. In [2] (read-out: Mice (ip) Tox, TD50), the TD50 came out at 68 mg/kg. Also, in [5] (ip, PI=TD50/ED50), the “Mice (ip) PI” value was determined as 4.4. For the same molecule, the “Mice (ip) MES, ED50” value in data set [11] is 15.05 [0.25] (13.93- 16.39). Also, the TD50 in data set [10] is > 30 mg/kg.

On to `COC[C@@H](NC(C)=O)C(=O)NCc1ccc(OCc2cccc(F)c2)cc1` [(R)-10, (R)-2-Acetamido-N-(4-(3-fluorobenzyloxy)benzyl)-3-methoxypropanamide], for which the “Rat (po) MES, ED50” value in data set [1] was 4.9 [1]. Moreover, the “Rat (po) PI” value in [1] (PI=TD50/ED50) was >57; in data set [1] (Table b500, protective index (TD50/ED50)), >36; in data set [1] (Table b501, protective index (TD50/ED50)), >36; in data set [1] (Table b502, protective index (TD50/ED50)), >36. Moreover, the ED50 was 14 mg/kg in data set [1] (Rattus norvegicus, Table b500, orally, read-out: Rat (po) MES, ED50); 14 mg/kg in data set [1] (Rattus norvegicus, Table b502, orally, read-out: Rat (po) MES, ED50); 1.4 mg/kg in data set [1] (Rattus norvegicus, read-out: Rat (po) MES, ED50, Table b501, orally). For the same molecule, the “Mice (ip) Tox, TD50” value was 26 [0.5] mg/kg in data set [12] (Table b500, rotorod test) and 26 [0.5] mg/kg in [12] (Table b502, rotorod test). For the same molecule, in data set [12] (rotorod test), the “Mice (ip) Tox, Td50” value is 26 [0.5] mg/kg. For the same molecule, the “Mice (ip) PI” value in data set [5] (Table b500, ip, protective index (TD50/ED50)) is listed as 2; in data set [5] (setting [17]) it was 2; in data set [5] (Table b502, ip, protective index (TD50/ED50)) it was 2; in data set [5] (ip, PI=TD50/ED50), ~3.1. Further, the “Mice (ip) MES, ED50” value in data set [5] (Table b501, intraperitoneally) was 13 [0.25] mg/kg; in data set [5] (Table b502, intraperitoneally), 13 [0.25] mg/kg. Further, the “Formalin Test (mice, ip) Inflammatory (%)” value in data set [7] (dose 15 mg/kg) was 44 (10) %. Also, the “Formalin Assay Acute (%)” value in data set [7] (dose 25 (mg)) amounted to 80%. For the same molecule, the “Formalin Assay Inflam. (%)” value in data set [7] (dose 25 (mg)) was found to be 70%. Also, the “Mice (ip) 6 Hz, ED50” value in [13] (Table b500, intraperitoneally) was ~10 [0.25] mg/kg; in data set [13] (Table b501, intraperitoneally) it was ~10 [0.25] mg/kg; in data set [13] (Table b502, intraperitoneally), ~10 [0.25] mg/kg. For the same molecule, in [14] (after drug (pre-drug duration in neighbouring column)), the “Preliminary Hippocampal Kindling Test (Rats) After discharge duration, Drug” value came out at 0 s. Further, in data set [14] (after drug (pre-drug score in neighbouring column)), the “Preliminary Hippocampal Kindling Test (Rats) Seizure Score, Drug” value is 0. The “Rat (po) Tox, TD50” value is >500 [0.5] mg/kg in [15] (Table b500, orally, behavioral toxicity); >500 [0.5] mg/kg in data set [15] (setting [18]); >500 [0.5] mg/kg in [15] (Table b502, orally, behavioral toxicity); > 280 mg/kg in data set [15] (po).

In the case of `COC[C@@H](NC(C)=O)C(=O)NCc1ccc(Oc2cccc(F)c2)cc1` [(R)-12, (R)—N-4′-((3″-Fluoro)phenoxy)benzyl 2-N-Acetamido-3-methoxypropionamide], the melting point lay within 125 to 126 °C. For the same molecule, the TD50 in data set [2] (setting [19]) was 23 mg/kg. The “Mice (ip) MES, ED50” value in data set [5] (Table b501, intraperitoneally) is 5.5 [0.25] (3.2-6.3) mg/kg. The “Mice (ip) PI” value in data set [5] (setting [17]) stood at 4.2. Besides, in [13], the ED50 was ~10 mg/kg. Moreover, in data set [15] (setting [18]), the “Rat (po) Tox, TD50” value is >10 [0.25-4.0] mg/kg.

The molecule `COC[C@@H](NC(C)=O)C(=O)NCc1ccc(/C=C/c2cccc(F)c2)cc1` [(R)-14, (2-R,E)-N-4-(3-Fluorostyryl)benzyl 2-Acetamido-3-methoxypropionamide] displayed a melting point of 206 to 208 °C. For the same molecule, in [2] (setting [19]), the TD50 is 100 to 300 mg/kg. In addition, in data set [5] (Table b501, intraperitoneally), the “Mice (ip) MES, ED50” value is >30, <100 [0.5] mg/kg. Besides, the ED50 in data set [13] is < 30 mg/kg.

As for `CC(=O)N[C@@H](C)C(=O)NCc1ccccc1` [(S)-4, reference compound], the “Mice (ip) Tox, TD50” value in data set [6] is recorded as 630 mg/kg. In [8], the “Mice (ip) Mes, ED50” value is reported as 8.0 mg/kg.

For the molecule `CCCC(CCC)C(=O)O` [valproate], the “Rat (po) MES, ED50” value in data set [4] (Ref 16, 32) is 490 [0.5] mg/kg; in data set [4] (reference drugs marked h), 490 [0.5]. Moreover, the “Rat (po) PI” value in data set [4] (Ref 32) and in [4] (reference drugs marked h) was 0.6 throughout. For the same molecule, the “Formalin Test (mice, ip) Inflammatory (%)” value in data set [7] (dose 300 mg/kg) is 67 (20) %. Also, the “Mice (ip) Mes, ED50” value in [8] is 270 [0.25] mg/kg. Also, the “Mice (ip) PI” value in [8] (Ref 32) and in data set [8] (reference drugs marked h) was 1.6 in each case. The “Mice (ip) MES, ED50” value in [8] (reference drugs marked h) is 270 [0.25]. Moreover, in data set [14] (Rattus norvegicus, ip, read-out: Hippocampal Kindled Rats (ip) ED50 (interval)), the ED50 is 214 mg/kg.
